Key:
[1] = molecular target: human recombinant cathepsin C (Homo sapiens, UniProt P53634); test: In vitro inhibitory effect on human recombinant cathepsin C (h-gly-arg-amc substrate); type: biochemical; settings: human recombinant cathepsin C 2 nM, 30 min preincubation at 25° C., substrate 100 μM; read-out: CatC IC50
[2] = molecular target: T1, intracellular cathepsin C in THP-1 cells (Homo sapiens, UniProt P53634); test: In vitro inhibitory effect on intracellular cathepsin C in THP-1 cells; type: cell-based; settings: 1 h incubation at 37° C., h-gly-arg-amc 200 μM, read-out: THP-1 CatC IC50
T1 construct: endogenous in cells; host or cells: THP-1
T1 sequence (P53634 25-463): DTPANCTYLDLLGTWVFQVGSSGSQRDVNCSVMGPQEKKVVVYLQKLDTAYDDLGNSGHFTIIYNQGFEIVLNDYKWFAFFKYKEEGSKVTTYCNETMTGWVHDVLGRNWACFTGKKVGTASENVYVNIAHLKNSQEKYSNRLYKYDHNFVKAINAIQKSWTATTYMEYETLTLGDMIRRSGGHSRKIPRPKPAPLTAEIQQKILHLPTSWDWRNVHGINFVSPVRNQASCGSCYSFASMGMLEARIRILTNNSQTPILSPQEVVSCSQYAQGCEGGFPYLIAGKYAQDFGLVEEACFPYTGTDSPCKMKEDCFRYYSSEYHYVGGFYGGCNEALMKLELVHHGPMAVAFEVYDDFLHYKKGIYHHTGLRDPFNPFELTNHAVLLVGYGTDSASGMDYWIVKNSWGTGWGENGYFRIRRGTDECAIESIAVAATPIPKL

[3] = molecular target: T2, intracellular cathepsin C in U937 cells (Homo sapiens, UniProt P53634); test: In vitro inhibitory effect on intracellular cathepsin C in U937 cells; type: cell-based; settings: 1 h incubation at 37° C., h-gly-arg-amc 200 μM, read-out: U937 CatC IC50
T2 construct: endogenous in cells; host or cells: U937
T2 sequence (P53634 25-463): as above

[4] = In vivo acute toxicity evaluation; settings: mouse, ICR mice, oral, 1500 mg/kg at one time, observed one week
From the text: (§1) In Vivo Acute Toxicity Evaluation:
(§2) The mice were randomly divided into two groups and subjected to adaptive feeding for one week. […] The body weight, mortality and behavior of the mice were observed and recorded daily for one week. Subsequently, the mice were anesthetized and the tissues were used for HE staining.

[5] = tested on: ICR mice; test: In vivo acute toxicity evaluation; settings: mouse, po, 1500 mg/kg
From the text: as §1, §2

[6] = tested on: cathepsin C and NSPs; test: Test of in vivo inhibition of cathepsin C and NSPs in normal mice; settings: C57BL/6 mice, oral 5, 15, 45 mg/kg for 6 days; bone marrow and blood; dose-dependent
Protocol: Test of In Vivo Inhibition of Cathepsin C and NSPs.
C57BL/6 mice (half sex, about 20 g, purchased from the Department of Animal Science of Anhui Medical University) were randomly divided into four groups (N=6). […] Mice in the control group were administered with the same amount of normal saline twice a day for 6 days. At the end, bone marrow and blood were drawn to analyze the activity of cathepsin C and NSPs. Bone marrow and blood lysates were added to a 384-well plate. A synthetic peptide substrate was used to analyze the activity of NSPs and cathepsin C.

[7] = tested on: cytokines (IFN-γ, IL-1β, IL-6, IL-17, TNF-α, GM-CSF, IL-10); test: Cytokine levels in COPD model by ELISA; type: in vivo; settings: COPD rats; bone marrow, blood, lung, and BALF; dose-dependent
Protocol: (§3) A combination of fumigation and LPS (Sigma) was used. […] Except for the negative control group, all rats were exposed to cigarette smoke (XIONGSHI) for 45 min in each day from day 1 to day 13 and day 15 to day 30, subjected to tracheal instillation of LPS ([…]) on day 0 (start point of the study), and subjected to tracheal instillation of LPS ([…]) on day 14. The body weight was recorded every three days, and the behavior, coat color and breathing were observed daily. On day 31, the animals were euthanized with an overdose of chloral hydrate. Subsequently, lung, bronchoalveolar lavage fluid (BALF), blood, bone marrow samples were collected and stored at −80° C. until being detected. The levels of cathepsin C and NSP were detected with previously described methods, and cytokine levels in all samples were analyzed by ELISA kits (MULTI SCIENCES).

[8] = tested on: cathepsin C and downstream NSPs; test: Cathepsin C and NSP levels in COPD model; type: in vivo; settings: COPD rats, oral 5, 15, 45 mg/kg twice a day; bone marrow, blood, lung, and BALF; dose-dependent
Protocol: as §3

[9] = tested on: COPD rat model; test: In vivo anti-inflammatory activity assessment, COPD model (fumigation and LPS); parameters: species or system rats; settings: oral 5, 15, 45 mg/kg twice a day
Protocol: In Vivo Anti-Inflammatory Activity Assessment:
as §3

Chain of human recombinant cathepsin C (P53634 25-463): as above

Compound | IC50 [1] [nM] | IC50 [2] [nM] | IC50 [3] [nM] | LD50 at 1 week [4] [mg/kg] | pathological changes in tissues and organs (HE staining) [5] | cathepsin C activity and downstream NSP activation [6] | IL-10 level [7] | level of pro-inflammatory cytokines (IFN-γ, IL-1β, IL-6, IL-17, TNF-α, and GM-CSF) [7] | cathepsin C activity and downstream NSP activation [8] | histopathological changes of lung tissue (H&E staining) ([9]; COPD rat model) | body weight ([9]; COPD rats) | pulmonary inflammation and systemic inflammation ([9]; COPD rats, 28 days, compared with the model group)
5-chloro-N^2-(5-(4-(dimethylamino)phenyl)pyridin-2-yl)-N^4-(3-(trifluoromethyl)phenyl)pyrimidine-2,4-diamine [Compound 61] | 305.3 ± 2.7 | 278.2 ± 1.2 | 377.5 ± 0.9 | – | – | – | – | – | – | – | – | –
CN1CCN(c2ccc(Nc3ncc(Cl)c(Nc4cccc(C(F)(F)F)c4)n3)nc2)CC1 [Compound 41, 5-chloro-N^2-(5-(4-methylpiperazin-1-yl)pyridin-2-yl)-N^4-(3-(trifluoromethyl)phenyl)pyrimidine-2,4-diamine] | – | – | – | > 1500 | no pathological changes were found | decreased obviously | increased cytokines (IL-10) in a dose-dependent manner | decreased level of pro-inflammatory cytokines | decreased obviously | ameliorated these histopathological changes in an obvious dose-dependent manner | lost their weight slowly and gained weight slightly after about 20 days | significantly less suffered from pulmonary inflammation and systemic inflammation
CCCCN1CCN(c2ccc(Nc3ncc(Cl)c(Nc4cccc(C(F)(F)F)c4)n3)nc2)CC1 [Compound 48, N^2-(5-(4-butylpiperazin-1-yl)pyridin-2-yl)-5-chloro-N^4-(3-(trifluoromethyl)phenyl)pyrimidine-2,4-diamine] | – | 240.5 ± 1.2 | 199 ± 2.03 | – | – | – | – | – | – | – | – | –
CON1CCN(c2ccc(Nc3ncc(C)c(Nc4cccc(C(F)(F)F)c4)n3)nc2)CC1 [Compound 67, 5-methyl-N^2-(5-(4-methoxypiperazin-1-yl)pyridin-2-yl)-N^4-(3-(trifluoromethyl)phenyl)pyrimidine-2,4-diamine] | 167 ± 2.01 | 139.8 ± 1.03 | 156 ± 2.13 | – | – | – | – | – | – | – | – | –
